Reference: PubChem BioAssay (NCI)
Where “and” joins values, the source holds several entries; their conditions need not be identical. Equal entries are not always repeated.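 Assay format: 96-well plates, 48-hour exposure. GI50 marks 50% less growth. The concentration for full growth arrest is given as TGI.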

Columns and labels:
Test in all cases: NCI tumour cell line growth inhibition, 48 h
[1] = system: TK-10 renal
[2] = system: M14 melanoma
[3] = system: OVCAR-3 ovarian
[4] = system: OVCAR-4 ovarian
[5] = system: SNB-19 CNS
[6] = system: DU-145 prostate
[7] = system: BT-549 breast
[8] = system: SF-295 CNS
[9] = system: MALME-3M melanoma
[10] = system: UACC-257 melanoma

Row | SMILES | TGI [1] | TGI [2] | GI50 [3] | TGI [3] | GI50 [4] | TGI [4] | GI50 [5] | TGI [5] | GI50 [6] | TGI [6] | GI50 [7] | TGI [7] | GI50 [8] | TGI [8] | GI50 [9] | TGI [9] | GI50 [10] | TGI [10] | GI50 [1] | GI50 [2]
1 | COC1C(OC(=O)/C=C/C=C/C=C/C=C/C(=O)O)CCC2(CO2)C1C1(C)OC1CC=C(C)C (stereo not given) | > 100 µM | 69.8 µM | 0.314 µM | > 80.9 µM | 0.184 µM | > 87 µM | 0.277 µM | > 100 µM | 0.651 µM | > 100 µM | 0.268 µM | > 100 µM | 0.193 µM | > 96.8 µM | 0.45 µM | > 75.3 µM | 0.489 µM | > 84.2 µM | – | –
2 | CCCN1CCC(Oc2cc(Nc3nc(Nc4cccc(F)c4C(N)=O)c4cc[nH]c4n3)c(OC)cc2Cl)CC1 | 7.01 µM | 2.88 µM | 4.18 µM | 7.99 µM | 3.67 µM | 8.05 µM | 4.18 µM | 8.33 µM | 3.68 µM | 7.76 µM | 3.75 µM | 7.36 µM | 3.81 µM | 8.53 µM | 3.81 µM | 8.4 µM | 3.28 µM | 6.75 µM | 3.14 µM | 0.859 µM
3 | COCCn1c(Nc2ccc(C(=O)NO)cc2)nc2ccccc21 | 44.6 µM | 14.9 µM | 3.24 µM | 14.1 µM | 16.1 µM | > 100 µM | 10.7 µM | 30 µM | 2.91 µM | 14.7 µM | 15.2 µM | 67.9 µM | 2.93 µM | 16.3 µM | 2.07 µM | 9.02 µM | 1.77 µM | 14.1 µM | 3.19 µM | 3.49 µM
4 | CN(C)CCN1C(=O)c2cccc3cc(N)cc(c23)C1=O | 24.9 µM and 14.4 µM | 16.7 µM and 8.69 µM | 4.98 µM | 25.9 µM and 26.4 µM | – | 33.7 µM and 18.3 µM | 4.7 µM | > 88.9 µM and 18.8 µM | 1.59 µM | 29.8 µM and 12.9 µM | 11.2 µM | 28.3 µM and 13.1 µM | 2.29 µM | 9.31 µM and 18.4 µM | 2.41 µM | 9.85 µM and 8.29 µM | 2.55 µM | 9.51 µM and 12.8 µM | 3.27 µM | –
5 | O=C(c1ccccc1)c1nc2ccc(Cl)cc2cc1C(Br)Br | 1.83 µM | 5.65 µM | – | 0.856 µM | – | 1.41 µM | – | 1.42 µM | – | 1.97 µM | – | 1.12 µM | – | 0.939 µM | – | 5.43 µM | – | 1.54 µM | – | –
6 | Cc1cc(NC(=O)NCCCOc2ccc(N3C(N)=NC(N)=NC3(C)C)cc2Cl)ccc1S(=O)(=O)F | > 100 µM | > 100 µM | 2.79 µM | > 53.9 µM | 2.34 µM | > 100 µM | 0.92 µM | > 54.7 µM | 0.786 µM | > 62.4 µM | 4.85 µM | 21.7 µM | 3.26 µM | > 100 µM | 1.84 µM | 25.4 µM | 4.09 µM | 30.9 µM | 3.11 µM | 2.42 µM
7 | COc1cccc(C2CC(C)(O)Oc3cc4c(cc32)OCO4)c1 (stereo not given) | 80.2 µM | > 100 µM | – | 56 µM | – | > 100 µM | – | > 100 µM | – | > 100 µM | – | > 100 µM | – | 95.7 µM | – | > 100 µM | – | > 100 µM | – | –
8 | CC[C@@H]1C(=O)N(C)c2cnc(Nc3ccc(C(=O)NC4CCC(N5CCN(CC6CC6)CC5)CC4)cc3OC)nc2N1C(C)C (stereo not given in full) | > 10 µM and 8.62 µM | > 3.81 µM and 2.39 µM | 0.013 µM and < 0.0161 µM | – | 0.89 µM and 0.466 µM | > 10 µM and 19 µM | 0.0356 µM and 0.0566 µM | > 10 µM and 18 µM | 0.0118 µM and 0.0379 µM | > 10 µM and 16.8 µM | 0.078 µM and 0.0387 µM | > 10 µM and 6.44 µM | 0.0353 µM and 0.0406 µM | 2.51 µM and 2.44 µM | 0.607 µM and 1.39 µM | > 4.91 µM and 3.08 µM | 0.22 µM and 0.046 µM | > 5.86 µM and 1.75 µM | 0.128 µM and 0.0776 µM | 0.00963 µM and 0.0349 µM
9 | CN1CCC2(CC1)C(=O)Nc1cc(NC(=O)c3ccc4c(c3)C[C@@H]3C(C)(C)[C@H](O)[C@H](F)C[C@@]3(C)O4)ccc12 | 76.3 µM | 4.37 µM | 18.5 µM | 66.8 µM | 25.9 µM | > 100 µM | 1.97 µM | 22 µM | 10.6 µM | 57.6 µM | 0.0691 µM | 20.1 µM | 0.0495 µM | 0.256 µM | 1.49 µM | 9.79 µM | 3.21 µM | 21.2 µM | 21.4 µM | 0.549 µM
10 | CCOC(=O)c1sc2nc(=S)[nH]c(NC(N)=S)c2c1C | > 100 µM | 64.6 µM | 26.4 µM | 56.2 µM | 35.4 µM | > 100 µM | 28.1 µM | > 100 µM | 15.4 µM | 39.4 µM | 12.6 µM | 41 µM | 24.4 µM | 65.8 µM | 37 µM | 72.1 µM | 24.6 µM | 47.3 µM | 95.5 µM | 26.5 µM
11 | O=C(O)c1c2c(c(O)c3c1CN(C1CCCCC1)CO3)OCN(C1CCCCC1)C2 | > 100 µM | > 100 µM | – | > 100 µM | – | > 100 µM | – | > 100 µM | – | > 100 µM | – | > 100 µM | – | > 100 µM | – | > 100 µM | – | > 100 µM | – | –
12 | COc1ccc(CC(C)NCC(O)c2ccc(O)c(NC=O)c2)cc1 (stereo not given) | > 100 µM | > 100 µM | – | > 100 µM | – | > 100 µM | – | > 100 µM | – | > 100 µM | – | > 100 µM | – | > 100 µM | – | > 100 µM | – | > 100 µM | – | –
13 | CN1CCN(c2cc(F)c(NC3=C(Cl)C(=O)c4ncccc4C3=O)c(F)c2)CC1 | 3.32 µM | 3.39 µM | 0.539 µM | 2 µM | 1.35 µM | 2.65 µM | 1.94 µM | 3.9 µM | 1.45 µM | 2.94 µM | 1.63 µM | 3.06 µM | 1.68 µM | 3.23 µM | 1.65 µM | 3.12 µM | 1.43 µM | 2.78 µM | 1.81 µM | 1.82 µM
14 | COc1cc2c(cc1OCCCCCOc1ccc(-c3nc4ccccc4s3)cc1)N=C[C@@H]1CCCN1C2=O | > 57.7 µM | 9.08 µM | 1.54 µM | > 44 µM | 3.02 µM | > 76.5 µM | 5.08 µM | 20.8 µM | 2.08 µM | 13 µM | 3.45 µM | 16.4 µM | 2.37 µM | > 100 µM | 12.5 µM | 37.9 µM | 6.61 µM | 21.2 µM | 8.48 µM | 1.46 µM
